Reference: patent US9758529B2, “Fused dihydro-4H-pyrazolo[5,1-C][1,4]oxazinyl compounds and analogs for treating CNS disorders” (Sunovion Pharmaceuticals Inc., priority 2015, dated 2017)

System: mice
Assay: Neuropharmacological Assay (SmartCube)
Format: in vivo
Details: i.p. 15 min before behavioral test; 3 doses, most efficacious dose(s) presented

| Structure (SMILES) | AD: ADHD (probability of class match) | AG: analgesic (probability of class match) | AX: anxiolytic (probability of class match) | CE: cognitive enhancer (probability of class match) | DP: anti-depressant (probability of class match) | HA: hallucinogen (probability of class match) | MS: mood stabilizer (probability of class match) | PS: anti-psychotic (probability of class match) | SD: sedative hypnotic (probability of class match) | UN: uncharacterized CNS activity (probability of class match) | XG: anxiogenic (probability of class match) |
| --- | --- | --- | --- | --- | --- | --- | --- | --- | --- | --- | --- |
| CN1CCC2(CC1)OCCn1nc3ccccc3c12.Cl [Compound 24, 1′-methyl-3,4-dihydrospiro[[1,4]oxazino[4,3-b]indazole-1,4′-piperidin]-1′-ium chloride] | + (LOQ≦ + <5%) | ++ (5%≦ ++ <25%) | ++ (5%≦ ++ <25%) | ++ (5%≦ ++ <25%) | ++ (5%≦ ++ <25%) | + (LOQ≦ + <5%) | + (LOQ≦ + <5%) | ++ (5%≦ ++ <25%) | + (LOQ≦ + <5%) | + (LOQ≦ + <5%) | + (LOQ≦ + <5%) |
| CN1CCO[C@@H]([C@@H]2OCCn3nc4ccccc4c32)C1 [Compound 25, (2R)-2-((R)-3,4-dihydro-1H-[1,4]oxazino[4,3-b]indazol-1-yl)-4-methylmorpholin-4-ium chloride] | ++ (5%≦ ++ <25%) | ++ (5%≦ ++ <25%) | ++ (5%≦ ++ <25%) | + (LOQ≦ + <5%) | ++ (5%≦ ++ <25%) | + (LOQ≦ + <5%) | + (LOQ≦ + <5%) | + (LOQ≦ + <5%) | + (LOQ≦ + <5%) | + (LOQ≦ + <5%) | + (LOQ≦ + <5%) |
| CN1CCO[C@@H]([C@H]2OCCn3nc4ccccc4c32)C1 [Compound 26, (2R)-2-((S)-3,4-dihydro-1H-[1,4]oxazino[4,3-b]indazol-1-yl)-4-methylmorpholin-4-ium chloride] | + (LOQ≦ + <5%) | ++ (5%≦ ++ <25%) | + (LOQ≦ + <5%) | + (LOQ≦ + <5%) | ++ (5%≦ ++ <25%) | + (LOQ≦ + <5%) | + (LOQ≦ + <5%) | + (LOQ≦ + <5%) | + (LOQ≦ + <5%) | + (LOQ≦ + <5%) | + (LOQ≦ + <5%) |
| CC(C)N(C)CC1OCCn2nc3ccccc3c21.Cl (stereo not drawn) [Compound 27, N-((3,4-dihydro-1H-[1,4]oxazino[4,3-b]indazol-1-yl)methyl)-N-methylpropan-2-aminium chloride] | + (LOQ≦ + <5%) | ++ (5%≦ ++ <25%) | + (LOQ≦ + <5%) | + (LOQ≦ + <5%) | ++++ (50%≦ ++++) | + (LOQ≦ + <5%) | + (LOQ≦ + <5%) | + (LOQ≦ + <5%) | + (LOQ≦ + <5%) | + (LOQ≦ + <5%) | + (LOQ≦ + <5%) |
| CCN(C)CC1OCCn2nc3ccccc3c21.Cl (stereo not drawn) [Compound 28, N-((3,4-dihydro-1H-[1,4]oxazino[4,3-b]indazol-1-yl)methyl)-N-methylethanaminium chloride] | + (LOQ≦ + <5%) | + (LOQ≦ + <5%) | ++ (5%≦ ++ <25%) | ++ (5%≦ ++ <25%) | ++++ (50%≦ ++++) | ++ (5%≦ ++ <25%) | + (LOQ≦ + <5%) | + (LOQ≦ + <5%) | + (LOQ≦ + <5%) | ++ (5%≦ ++ <25%) | + (LOQ≦ + <5%) |
| CN(CC1OCCn2nc3ccccc3c21)C1CCC1.Cl (stereo not drawn) [Compound 29, N-((3,4-dihydro-1H-[1,4]oxazino[4,3-b]indazol-1-yl)methyl)-N-methylcyclobutanaminium chloride] | + (LOQ≦ + <5%) | + (LOQ≦ + <5%) | ++ (5%≦ ++ <25%) | ++ (5%≦ ++ <25%) | +++ (25%≦ +++ <50%) | ++ (5%≦ ++ <25%) | + (LOQ≦ + <5%) | + (LOQ≦ + <5%) | + (LOQ≦ + <5%) | + (LOQ≦ + <5%) | + (LOQ≦ + <5%) |
| c1ccc2c3n(nc2c1)CCOC3C1CCNCC1 (stereo not drawn) [Compound 35, 4-(3,4-dihydro-1H-[1,4]oxazino[4,3-b]indazol-1-yl)piperidin-1-ium chloride] | + (LOQ≦ + <5%) | + (LOQ≦ + <5%) | + (LOQ≦ + <5%) | + (LOQ≦ + <5%) | + (LOQ≦ + <5%) | + (LOQ≦ + <5%) | + (LOQ≦ + <5%) | + (LOQ≦ + <5%) | + (LOQ≦ + <5%) | + (LOQ≦ + <5%) | + (LOQ≦ + <5%) |
| c1ccc2c3n(nc2c1)CCOC31CCNCC1 [Compound 36, 3′,4′-dihydrospiro[piperidine-4,1′-[1,4]oxazino[4,3-b]indazol]-1-ium chloride] | + (LOQ≦ + <5%) | ++ (5%≦ ++ <25%) | ++ (5%≦ ++ <25%) | ++ (5%≦ ++ <25%) | +++ (25%≦ +++ <50%) | + (LOQ≦ + <5%) | + (LOQ≦ + <5%) | ++ (5%≦ ++ <25%) | ++ (5%≦ ++ <25%) | ++ (5%≦ ++ <25%) | + (LOQ≦ + <5%) |
| Cl.c1ccc2c3n(nc2c1)CCOC31CN2CCC1C2 (stereo not drawn) [Compound 37, 3′,4′-dihydro-4-azaspiro[bicyclo[2.2.1]heptane-2,1′-[1,4]oxazino[4,3-b]indazol]-4-ium chloride] | + (LOQ≦ + <5%) | ++ (5%≦ ++ <25%) | ++ (5%≦ ++ <25%) | ++ (5%≦ ++ <25%) | ++ (5%≦ ++ <25%) | + (LOQ≦ + <5%) | + (LOQ≦ + <5%) | ++ (5%≦ ++ <25%) | ++ (5%≦ ++ <25%) | +++ (25%≦ +++ <50%) | + (LOQ≦ + <5%) |
| Cl.c1ccc2c3n(nc2c1)CCOC3[C@H]1CCCNC1 (stereo partly drawn) [Compound 38, (3S)-3-(3,4-dihydro-1H-[1,4]oxazino[4,3-b]indazol-1-yl)piperidin-1-ium] | + (LOQ≦ + <5%) | ++ (5%≦ ++ <25%) | ++ (5%≦ ++ <25%) | + (LOQ≦ + <5%) | + (LOQ≦ + <5%) | + (LOQ≦ + <5%) | ++ (5%≦ ++ <25%) | ++ (5%≦ ++ <25%) | + (LOQ≦ + <5%) | + (LOQ≦ + <5%) | + (LOQ≦ + <5%) |
| CC1(CN)OCCn2nc3ccccc3c21.Cl (stereo not drawn) [Compound 39, (1-methyl-3,4-dihydro-1H-[1,4]oxazino[4,3-b]indazol-1-yl)methanaminium chloride] | + (LOQ≦ + <5%) | + (LOQ≦ + <5%) | ++ (5%≦ ++ <25%) | + (LOQ≦ + <5%) | ++ (5%≦ ++ <25%) | + (LOQ≦ + <5%) | + (LOQ≦ + <5%) | + (LOQ≦ + <5%) | + (LOQ≦ + <5%) | + (LOQ≦ + <5%) | + (LOQ≦ + <5%) |
| c1ccc2c3n(nc2c1)CCOC31CNC1 [Compound 40, 3′,4′-dihydrospiro[azetidine-3,1′-[1,4]oxazino[4,3-b]indazol]-1-ium chloride] | + (LOQ≦ + <5%) | ++ (5%≦ ++ <25%) | +++ (25%≦ +++ <50%) | ++ (5%≦ ++ <25%) | ++ (5%≦ ++ <25%) | + (LOQ≦ + <5%) | + (LOQ≦ + <5%) | ++ (5%≦ ++ <25%) | ++ (5%≦ ++ <25%) | + (LOQ≦ + <5%) | + (LOQ≦ + <5%) |
